Data taken from EP0076973A1, “A new dioxolanic compound and its method of preparation; a new dioxolanic amine with pharmacological activity, its method of preparation, and the pharmaceutical compositions containing them” (Investigacion Tecnica y Aplicada, S.A., priority 1981, dated 1983).
Structures can show the parent of a compound that is named as a salt. Where two headings read alike, the source gives them in different places.

Experiments:
[1] = Acute toxicity (LD50, method of Litchfield and Wilcoxon) in the rat; conditions: in vivo
Method: (§1) The respective lethal dose 50 was calculated according to the method of Litchfield and Wilcoxon (Jl. Pharmacol. Exptl. 96 99, 1949 ).

[2] = Acute toxicity (LD50, method of Litchfield and Wilcoxon) in the mouse; conditions: in vivo
Method: as §1

conscious dog = experiment: Anti-angina activity: amplitude increase protection of the T wave by vasopression in the conscious dog; format: in vivo
Source text: The antiangina activity was also compared with that of the nitroglycerine by means of the amplitude increase protection test of the T wave for vasopression in the conscious dog. ( A.Lindner, M.London, G.Werner, Scheiz. Med.
Wsohr. 83-,- 360, 1953; J.Papp, L. Szekeres. Arch. Int. Pharmacodyn. 160, 1, 1966 ).

hind quarters of rats = experiment: Vasodilatory activity: perfusion of the hindquarters of rats with a hyperpotasemic solution; format: in vivo, rat; parameters: ED 25: unit not given here
Source text: In the table 3 is shown the results of the vasodilatory activity of the ITA 362 in the perfusion test of the hindquarters of rats with a hyperpotasemic solution. (F.N.Fastier, F.M. Smirk. Jl. Pharmacolog. Exp. Therapy. 89. 256, 1947).

male NMRI mouse = experiment: Anti-arrythmic activity: fibrillation by chloroform in the mouse; format: in vivo; conditions: for ED50: Mus musculus
Source text: Tables 5 and 6 show the anti-arrithmic activity of the ITA 362 in the male NMRI mouse by oral and intraperitoneal route using the fibrillation test by chloroform in the mouse. […] The activity of the two forms of maleate described in the example 2 were studied and which in the table are subtitled as isomer A corresponding to the first fraction obtained in the aforementioned example, and isomer B corresponding to the second fraction.

[3] = ip, intraperitoneal administration, read-out: LD50 and confidence limits
[4] = oral administration, read-out: LD50
[5] = ip, no unit given for ED50 (doses in mg/kg), read-out: ED50 and confidence limits p < 0,05
[6] = po, no unit given for ED50 (doses in mg/kg), (*) = calculation of limits is not possible, read-out: ED50 and confidence limits p<0,05

SMILES	% Prot. (conscious dog; dose i.v. 1 mg/kg, 1 mg/kg)	% drop in pressure (hind quarters of rats; concentration 10^-5 g/ml)	% drop in pressure (hind quarters of rats; concentration 10^-6 g/ml)	% drop in pressure (hind quarters of rats; concentration 10^-7 g/ml)	% drop in pressure (hind quarters of rats; concentration 10^-8 g/ml)	ED50 (male NMRI mouse; [5]) [mg/kg]	ED50 (male NMRI mouse; [6]) [mg/kg]	% protection versus fibrillation (male NMRI mouse; i.p. 25 mg/kg) [%]	% protection versus fibrillation (male NMRI mouse; i.p. 12,5 mg/kg) [%]	% protection versus fibrillation (male NMRI mouse; p.o. 12,5 mg/kg)	% protection versus fibrillation (male NMRI mouse; i.p. 50 mg/kg, 50 mg/kg) [%]	% protection versus fibrillation (male NMRI mouse; i.p. 100 mg/kg, 100 mg/kg) [%]	% protection versus fibrillation (male NMRI mouse; p.o. 25 mg/kg, 25 mg/kg) [%]	% protection versus fibrillation (male NMRI mouse; p.o. 50 mg/kg, 50 mg/kg) [%]	% protection versus fibrillation (male NMRI mouse; p.o. 100 mg/kg, 100 mg/kg) [%]	other results
CCCCNCC1COC(c2ccc(Cl)cc2)(c2cc3ccccc3o2)O1 (stereo not shown) [ITA 362 maleate, 2-(2'-benzofuranil) -4-butylaminomethyl--2-p-chlorophenyl-1,3-dioxolane, maleate]	46,8%															LD50 [1, 3]: 105 mg/kg; LD50 [1, 4]: > 4000 mg/kg; LD50 [2, 3]: 106 mg/kg; LD50 [2, 4]: > 4000 mg/kg; Control quot. treatment (conscious dog; dose i.v. 1 mg/kg): 1,893
CCCCNCC1COC(c2ccc(Cl)cc2)(c2cc3ccccc3o2)O1 (stereo not shown) [ITA 362, 2-(2' -benzofuranil)-4-n-butylaminomethyl-2-p-chlorophenyl-1,3-dioxolane]	~50%															
CCCCNCC1COC(c2ccc(Cl)cc2)(c2cc3ccccc3o2)O1 (stereo not shown) [ITA 362 citrate]		33,6%	16,3%	12,7%	12,5%	41.4	43.2	40	25	31,6%						ED 25 (hind quarters of rats; from concentrations 10^-5 to 10^-8 g/ml, correlation r printed in the same cell): 2,61; % protection versus fibrillation (male NMRI mouse; i.p. 50 mg/kg): 35%; % protection versus fibrillation (male NMRI mouse; i.p. 100 mg/kg): 84,2%; % protection versus fibrillation (male NMRI mouse; p.o. 25 mg/kg): 45%; % protection versus fibrillation (male NMRI mouse; p.o. 50 mg/kg): 55%; % protection versus fibrillation (male NMRI mouse; p.o. 100 mg/kg): 55%; % protection versus fibrillation (male NMRI mouse; p.o. 3,125 mg/kg): 10%; % protection versus fibrillation (male NMRI mouse; p.o. 6,25 mg/kg): 42,1%
CCCCNCC1COC(c2ccc(Cl)cc2)(c2cc3ccccc3o2)O1 (single isomer, unassigned) [ITA 362 maleate (isomer A)]						35.3		35	35	25%	60	70	35	70	70	
CCCCNCC1COC(c2ccc(Cl)cc2)(c2cc3ccccc3o2)O1 (single isomer, unassigned) [ITA 362 maleate (isomer B)]							27.6	35	40	35%	70	95	55	45	85	ED50 and confidence limits p < 0,05 (male NMRI mouse; route i.p., no unit given for ED50 (doses in mg/kg)): 24,5 (16,11 37,20)
O=[N+]([O-])OCC(CO[N+](=O)[O-])O[N+](=O)[O-] [Nitro-glycerine, nitroglycerine, reference compound]		25,4%	24,7%	17,5%	10,9%											% Prot. (conscious dog; dose i.v. 0,4 mg/kg): 28,9%; Control quot. treatment (conscious dog; dose i.v. 0,4 mg/kg): 1,520
